Experimental data published in patent US20230183218A1, “CONDENSED SUBSTITUTED HYDROPYRROLES AS ANTAGONISTS OF THE MUSCARINIC ACETYLCHOLINE RECEPTOR M4” (Vanderbilt University, priority 2020, published 2023).

Columns and labels:
Human M4 = molecular target: T1, Human M4 (Homo sapiens, UniProt P08173); experiment: mAChR M4 cell-based functional assay (calcium flux, antagonist mode vs EC80 acetylcholine), human M4/Gqi5/CHO-K1 cells; conditions: for remaining activity at 30 µM: CHO-K1, % ACh maximum at 30 μM, human M4, read-out: Human M4 Emin (%); for IC50: decrease of response elicited by EC80 acetylcholine, human M4/Gqi5 CHO-K1 cells
T1 construct: expressed in transfected cells; host or cells: CHO-K1 (ATCC), stably co-expressing chimeric G protein Gqi5
T1 sequence (P08173 1-479): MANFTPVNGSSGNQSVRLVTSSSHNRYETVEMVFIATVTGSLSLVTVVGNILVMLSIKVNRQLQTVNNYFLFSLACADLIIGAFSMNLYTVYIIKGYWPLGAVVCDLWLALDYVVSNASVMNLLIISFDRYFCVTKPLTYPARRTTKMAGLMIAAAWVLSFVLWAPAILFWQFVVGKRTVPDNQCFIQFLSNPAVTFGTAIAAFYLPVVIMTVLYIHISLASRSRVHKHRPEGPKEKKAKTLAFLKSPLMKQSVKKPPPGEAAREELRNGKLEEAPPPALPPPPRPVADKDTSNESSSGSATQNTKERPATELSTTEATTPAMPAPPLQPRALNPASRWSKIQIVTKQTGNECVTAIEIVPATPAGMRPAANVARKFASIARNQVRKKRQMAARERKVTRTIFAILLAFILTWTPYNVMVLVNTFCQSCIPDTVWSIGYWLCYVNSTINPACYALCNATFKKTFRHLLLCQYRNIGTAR
Procedure: (§1) Human or rat M4 cDNA, along with the chimeric G protein Gqi5, were transfected into Chinese hamster ovary (CHO-K1) cells purchased from the American Type Culture Collection using Lipofectamine2000. M4/Gqi5/CHO cells were grown in Ham's F-12 medium containing 10% heat-inactivated fetal bovine serum (FBS), 20 mM HEPES, 500 μg/mL G418 sulfate, and 200 μg/mL Hygromycin B.
(§2) For high throughput measurement of agonist-evoked increases in intracellular calcium, CHO-K1 cells stably expressing muscarinic receptors were plated in growth medium lacking G418 and hygromycin at 15,000 cells/20 μL/well in Greiner 384-well black-walled, tissue culture (TC)-treated, clear-bottom plates (VWR). Cells were incubated overnight at 37° C. and 5% CO2. The next day, cells were washed using an ELX 405 (BioTek) with assay buffer; the final volume was then aspirated to 20 μL. Next, 20 μL of a 2.3 μM stock of Fluo-4/acetoxymethyl ester (Invitrogen, Carlsbad, Calif.), prepared as a 2.3 mM stock in DMSO and mixed in a 1:1 ratio with 10% (w/v) Pluronic F-127 and diluted in assay buffer, was added to the wells and the cell plates were incubated for 50 min at 37° C. and 5% CO2. Dye was removed by washing with the ELX 405 and the final volume was aspirated to 20 μL. Compound master plates were formatted in a 10 point concentration-response curve (CRC) format (1:3 dilutions) in 100% DMSO with a starting concentration of 10 or 1 mM using a BRAVO liquid handler (Agilent). Test compound CRCs were then transferred to daughter plates (240 nL) using the Echo acoustic plate reformatter (Labcyte, Sunnyvale, Calif.) and then diluted into assay buffer (40 μL) to a 2× stock using a Thermo Fisher Combi (Thermo Fisher Scientific, Waltham, Mass.).
(§3) Calcium flux was measured using the Functional Drug Screening System (FDSS) 6000 or 7000 (Hamamatsu Corporation, Tokyo, Japan) as an increase in the fluorescent static ratio. Compounds were applied to cells (20 μL, 2×) using the automated system of the FDSS at 2 seconds into the protocol and the data were collected at 1 Hz. At 143 s, 10 μL of an EC20 concentration of the muscarinic receptor agonist acetylcholine was added (5×), followed by the addition of 12 μL of an EC80 concentration of acetylcholine at the 268 s time point (5×). Agonist activity was analyzed as a concentration-dependent increase in calcium mobilization upon compound addition. Positive allosteric modulator activity was analyzed as a concentration-dependent increase in the EC20 acetylcholine response. Antagonist activity was analyzed as a concentration-dependent decrease in the EC80 acetylcholine response; for the purposes of the tables herein, an IC50 (inhibitory concentration 50) was calculated as a concentration-dependent decrease of the response elicited by an EC80 concentration of acetylcholine. Concentration-response curves were generated using a four-parameter logistical equation in XLFit curve fitting software (IDBS, Bridgewater, N.J.) for Excel (Microsoft, Redmond, Wash.) or Prism (GraphPad Software, Inc., San Diego, Calif.) or the Dotmatics software platform (Dotmatics, Bishop's Stortford, UK).
(§4) Compounds were synthesized as described above. Activity (IC50 and Emin) was determined in the mAChR M4 cell-based functional assay as described above and the data are shown in Table 2.

Rat M4 = molecular target: T2, Rat M4 (Rattus norvegicus, UniProt P08485); experiment: mAChR M4 cell-based functional assay (calcium flux, antagonist mode vs EC80 acetylcholine), rat M4/Gqi5/CHO-K1 cells; conditions: for remaining activity at 30 µM: CHO-K1, % ACh maximum at 30 μM, rat M4, read-out: Rat M4 Emin (%); for IC50: decrease of response elicited by EC80 acetylcholine, rat M4/Gqi5 CHO-K1 cells
T2 construct: expressed in transfected cells; host or cells: CHO-K1 (ATCC), stably co-expressing chimeric G protein Gqi5
T2 sequence (P08485 1-478): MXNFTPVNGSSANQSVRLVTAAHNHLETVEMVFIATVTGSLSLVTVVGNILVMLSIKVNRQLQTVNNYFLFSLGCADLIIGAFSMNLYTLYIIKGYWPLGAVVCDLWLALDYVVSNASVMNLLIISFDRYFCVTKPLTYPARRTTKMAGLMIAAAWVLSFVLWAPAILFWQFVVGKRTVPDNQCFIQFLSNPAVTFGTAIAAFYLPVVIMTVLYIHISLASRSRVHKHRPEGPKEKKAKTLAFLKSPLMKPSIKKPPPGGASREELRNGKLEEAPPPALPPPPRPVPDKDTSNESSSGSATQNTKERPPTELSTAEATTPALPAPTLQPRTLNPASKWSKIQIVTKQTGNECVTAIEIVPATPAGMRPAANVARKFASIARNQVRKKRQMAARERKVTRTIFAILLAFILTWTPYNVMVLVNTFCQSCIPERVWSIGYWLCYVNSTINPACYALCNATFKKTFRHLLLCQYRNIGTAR
Procedure: as §1, §2, §3, §4

SMILES | remaining activity at 30 µM (Human M4) | IC50 (Human M4) | remaining activity at 30 µM (Rat M4) | IC50 (Rat M4)
Fc1ccc(Cl)c(-c2ccc(N[C@H]3C[C@@H]4CN(C5COC5)C[C@@H]4C3)nn2)c1 [compound 14, (3aR,5s,6aS)-N-(6-(2-chloro-5-fluorophenyl)pyridazin-3-yl)-2-(oxetan-3-yl)octahydrocyclopenta[c]pyrrol-5-amine] | 21% | 5030 nM | 51% | > 10000 nM
Fc1ccc(Cl)c(-c2ccc(N[C@H]3C[C@@H]4CN(C5CCSCC5)C[C@@H]4C3)nn2)c1 [compound 15, (3aR,5s,6aS)-N-(6-(2-chloro-5-fluorophenyl)pyridazin-3-yl)-2-(tetrahydro-2H-thiopyran-4-yl)octahydrocyclopenta[c]pyrrol-5-amine] | 7% | 10.2 nM | 5% | 884 nM
CC1(C)CC(N2C[C@H]3C[C@H](Nc4ccc(-c5cc(F)ccc5Cl)nn4)C[C@H]3C2)CC(C)(C)O1 [compound 18, (3aR,5s,6aS)-N-(6-(2-chloro-5-fluorophenyl)pyridazin-3-yl)-2-(2,2,6,6-tetramethyltetrahydro-2H-pyran-4-yl)octahydrocyclopenta[c]pyrrol-5-amine] | 4% | 15 nM | 4% | 513 nM
Cc1nn(C)cc1-c1ccc(N[C@H]2C[C@@H]3CN(C4CCOC(C)(C)C4)C[C@@H]3C2)nn1 (stereo partly drawn) [compound 22, (3aR,5s,6aS)-N-(6-(1,3-dimethyl-1H-pyrazol-4-yl)pyridazin-3-yl)-2-(2,2-dimethyltetrahydro-2H-pyran-4-yl)octahydrocyclopenta[c]pyrrol-5-amine] | 6% | 4.52 nM | 11% | 6390 nM
Cc1cc(CN2C[C@H]3C[C@H](Nc4ccc(S(=O)(=O)c5ccccc5)nn4)C[C@H]3C2)nn1C [compound 24, (3aR,5s,6aS)-2-((1,5-dimethyl-1H-pyrazol-3-yl)methyl)-N-(6-(phenylsulfonyl)pyridazin-3-yl)octahydrocyclopenta[c]pyrrol-5-amine] | 8% | 906 nM | 35% | > 10000 nM
O=S(=O)(c1ccccc1)c1ccc(N[C@H]2C[C@@H]3CN(Cc4ccccn4)C[C@@H]3C2)nn1 [compound 25, (3aR,5s,6aS)-N-(6-(phenylsulfonyl)pyridazin-3-yl)-2-(pyridin-2-ylmethyl)octahydrocyclopenta[c]pyrrol-5-amine] | 6% | 436 nM | 26% | > 10000 nM
O=S(=O)(c1ccccc1)c1ccc(N[C@H]2C[C@@H]3CN(Cc4ccc5c(c4)OC(F)(F)O5)C[C@@H]3C2)nn1 [compound 26, (3aR,5s,6aS)-2-((2,2-difluorobenzo[d][1,3]dioxol-5-yl)methyl)-N-(6-(phenylsulfonyl)pyridazin-3-yl)octahydrocyclopenta[c]pyrrol-5-amine] | 3% | 1000 nM | 14% | 3000 nM

Continued by falling IC50 (Human M4), values first:

remaining activity at 30 µM (Human M4) | IC50 (Human M4) | remaining activity at 30 µM (Rat M4) | IC50 (Rat M4) | SMILES
3% | 80.2 nM | 17% | 1400 nM | Fc1ccc(Cl)c(-c2ccc(N[C@H]3C[C@@H]4CN(C5CCCOC5)C[C@@H]4C3)nn2)c1 (stereo partly drawn) [compound 13, (3aR,5s,6aS)-N-(6-(2-chloro-5-fluorophenyl)pyridazin-3-yl)-2-(tetrahydro-2H-pyran-3-yl)octahydrocyclopenta[c]pyrrol-5-amine]
4% | 65.6 nM | 11% | 1520 nM | O=S(=O)(c1ccccc1)c1ccc(N[C@H]2C[C@@H]3CN(CC4CCOCC4)C[C@@H]3C2)nn1 [compound 23, (3aR,5s,6aS)-N-(6-(phenylsulfonyl)pyridazin-3-yl)-2-((tetrahydro-2H-pyran-4-yl)methyl)octahydrocyclopenta[c]pyrrol-5-amine]
7% | 36.2 nM | 8% | 808 nM | CC1(C)CC(N2C[C@H]3C[C@H](Nc4ccc(-c5ccc6nccn6c5)nn4)C[C@H]3C2)CCO1 (stereo partly drawn) [compound 21, (3aR,5s,6aS)-2-(2,2-dimethyltetrahydro-2H-pyran-4-yl)-N-(6-(imidazo[1,2-a]pyridin-6-yl)pyridazin-3-yl)octahydrocyclopenta[c]pyrrol-5-amine]
3% | 18.7 nM | 4% | 129 nM | CC(=O)Nc1ccc(-c2ccc(N[C@H]3C[C@@H]4CN(C5CCOC(C)(C)C5)C[C@@H]4C3)nn2)cc1 (stereo partly drawn) [compound 20, N-(4-(6-(((3aR,5s,6aS)-2-(2,2-dimethyltetrahydro-2H-pyran-4-yl)octahydrocyclopenta[c]pyrrol-5-yl)amino)pyridazin-3-yl)phenyl)acetamide]
2% | 12.8 nM | 4% | 791 nM | O=S(=O)(c1ccccc1)c1ccc(N[C@H]2C[C@@H]3CN(Cc4ccc5c(c4)OCO5)C[C@@H]3C2)nn1 [compound 27, (3aR,5s,6aS)-2-(benzo[d][1,3]dioxol-5-ylmethyl)-N-(6-(phenylsulfonyl)pyridazin-3-yl)octahydrocyclopenta[c]pyrrol-5-amine]
4% | 1.9 nM | 4% | 97.3 nM | CC1(C)CC(N2C[C@H]3C[C@H](Nc4ccc(-c5cc(F)ccc5Cl)nn4)C[C@H]3C2)CCO1 (stereo partly drawn) [compound 16, (3aR,5s,6aS)-N-(6-(2-chloro-5-fluorophenyl)pyridazin-3-yl)-2-(2,2-dimethyltetrahydro-2H-pyran-4-yl)octahydrocyclopenta[c]pyrrol-5-amine]
